Laboratory results from the METLIN SMRT retention time set (Domingo-Almenara et al. 2019).

assay: gradient 5% acetonitrile 3 min, to 50% in 2 min, to 85% in 15 min, held 3 min, 100 µL/min; details: column: Zorbax Extend-C18 2.1 x 50 mm; eluents: water / acetonitrile, 0.1% formic acid
Outline: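 The system's dead and dwell volumes were 40 μL and 900 μL, with a Zorbax Extend-C18 column (2.1 × 50 mm, 1.8 μm) run at 100 μL/min in water and acetonitrile containing 0.1% formic acid each. Pure standards were analyzed in mixtures of ~100 molecules by HPLC–quadrupole time-of-flight mass spectrometry in positive and negative ionization mode. Retention time was assigned from computationally picked, manually inspected adduct peaks.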

SMILES	RP-LC retention time [s]
COc1ccc(OCC2c3cc(OC)c(OC)cc3CCN2C(=O)CC(C)C)cc1 (configuration not stated)	891
COc1ccc2c(c1)c(CN1CCOCCNC(=O)CC1)cn2C(C)C	642
O=C(NCCc1c[nH]c2ccccc12)c1ccc(N2CCCC2)c(S(=O)(=O)N2CCCC2)c1	979
COc1ccc(-c2nc(C)cc(C)c2CNS(=O)(=O)c2cccc(OC)c2)cc1	656
Cc1ncsc1CN1CCCC(n2c(C)cnc2-c2cccnc2)C1 (configuration not stated)	527
Cc1nc(-c2cccc(F)c2)sc1C(=O)NC(C)C	936
O=S(=O)(c1ccc(-c2nnc(C3CCC3)o2)o1)N1CCN(c2ccccc2)CC1	1090
COc1ccc2c(c1)-c1nc(NC(=O)c3ccc(Br)cc3)sc1CC2	1250
COc1ccc(C2(C(=O)N3CCOc4ccc(N5CCOCC5)cc4C3)CC2)cc1	794
CCOC(=O)c1c(C)oc2nc(C)nc(NCCN(C)Cc3ccccc3)c12	701
Cc1ccc(NC(=O)CN2C(=O)NC(c3ccccc3Cl)C3=C2COC3=O)cc1C (configuration not stated)	819
CC(C)NC(=O)c1nc(-c2ccnc(N3CCCCC3)c2)no1	671
COc1cccc(S(=O)(=O)N2CCC(n3cnnc3C3CC3)CC2)c1	695
O=C(N[C@H]1C[C@@H]2C[C@H]1N(C(=O)c1ccc(Cl)s1)C2)c1cccs1	850
CCn1cc(-c2ccc(C)cc2)cc1C(=O)NC1CC1	991
Cc1nn(C)c2nc(OC(C)C(=O)NCc3ccccc3Cl)cc(C(F)(F)F)c12 (configuration not stated)	1020
Cc1cc(C)cc(C(=O)N2CCc3[nH]nc(C(=O)N(C)C)c3C2)c1	655
O=C(Cc1ccccc1)NCc1nc(-c2ccc3oc(-c4ccccc4)nc3c2)no1	997
CCCNC(=O)N1CCC2(CC1)Nc1cc(F)ccc1-n1cccc12	888
Cc1nnc(N2CCCC(C(=O)N3CCCCC3)C2)c2nn(-c3ccc(Cl)cc3)c(C)c12 (configuration not stated)	741
COc1ccc(Cl)cc1NC(=O)N1CCCC1c1nc(-c2ccccc2)no1 (configuration not stated)	1140
Cc1cc(Cl)ccc1OCc1nc(-c2ccc3c(c2)ncn3CCC(=O)N2CCCC2)no1	889
Cc1ccc(CN2C(=O)COC[C@H]2C(=O)NCc2ccco2)cc1	737

Now from value to molecule:

RP-LC retention time [s]	SMILES
739	CCN(c1ccccc1)S(=O)(=O)c1cc(-c2[nH]ncc2C(=O)N(C)C)oc1C
863	CN(Cc1ccccc1)C(=O)C1CC(=O)N(CCc2c[nH]c3ccc(Cl)cc23)C1 (configuration not stated)
621	CN1C(=O)CO[C@@H](C(=O)O)[C@@H]1c1ccccc1
638	O=C(CN1CCCc2nc(C3CC3)ncc2C1=O)NCC1CC1
804	O=C1CSC(c2cccs2)N1c1nncs1 (configuration not stated)
701	Cn1nc(C(=O)N2CCCC2)c2c1CCN(C(=O)CCC(=O)N1CCN(c3ccccc3)CC1)C2
673	Cc1ccc(N2CC(C(=O)NCC(C)(O)C3CC3)CC2=O)cc1C (configuration not stated)
791	COCCCNC(=O)c1nccnc1NC(=O)c1ccc(C)cc1
1210	COc1ccccc1-c1csc(-c2nnn(-c3cccc(Cl)c3)c2N)n1
929	Cc1cc(-c2nnc(-c3ccco3)o2)c(C)n1CC(=O)Nc1cc(F)cc(F)c1
690	Cc1ccc(NC(=O)Cn2ccc3ccc(-c4nnc(C)o4)cc32)nc1
681	COc1ccc(-c2ccnc3ncnn23)c(F)c1
895	CCCn1c(=O)c(C)nc2cc(-c3noc(C4CC(=O)N(c5ccccc5)C4)n3)ccc21 (configuration not stated)
877	Cc1cc(-c2nnc(-c3ccc(F)cc3)o2)c(C)n1CC(=O)N1CCCCC1
